# In publication PMC9080042, “Biochemical and kinetic characterization of laccase and manganese peroxidase from novel Klebsiella pneumoniae strains and their application in bioethanol production” (RSC Advances, 2018):
# Legend:
# Test in all cases: ABTS oxidation at […] nm, Lineweaver-Burk
# Assay type in all cases: biochemical, Klebsiella pneumoniae
# laccase (NITW715076) = tested on: T1, laccase (NITW715076); settings: 0.1 M citrate buffer pH 5.0, optimum temperature (50 °C); methods call the enzyme partially purified; read-out: Laccase / K m
# T1 construct: gene lac; native extracellular enzyme from culture supernatant; ammonium sulphate, dialysis, DEAE-sepharose; 66 kDa by SDS-PAGE; gene not identified
# laccase (NITW715076_1) = tested on: T2, laccase (NITW715076_1); settings: 0.1 M citrate buffer pH 5.0, optimum temperature (50 °C); methods call the enzyme partially purified; read-out: Laccase / K m
# T2 construct: gene lac; native extracellular enzyme from culture supernatant; ammonium sulphate, dialysis, DEAE-sepharose; 66 kDa by SDS-PAGE; gene not identified
# laccase (NITW715076_2) = tested on: T3, laccase (NITW715076_2); settings: 0.1 M citrate buffer pH 5.0, optimum temperature (60 °C); methods call the enzyme partially purified; read-out: Laccase / K m
# T3 construct: gene lac; native extracellular enzyme from culture supernatant; ammonium sulphate, dialysis, DEAE-sepharose; 66 kDa by SDS-PAGE; gene not identified
structure (smiles),measurement,setting,value
"CCn1c(=NN=c2sc3cc(S(=O)(=O)O)ccc3n2CC)sc2cc(S(=O)(=O)O)ccc21 [ABTS, 2,2′-azino-bis(3-ethylbenzothiazoline)-6-sulfonic acid]",Km,laccase (NITW715076),467 µM
same,Km,laccase (NITW715076_1),3970 µM
same,Km,laccase (NITW715076_2),380 µM
